Measured values taken from ChEMBL document CHEMBL1201862, “PubChem BioAssay data set” (2004).
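Cells were grown in 96-well plates and exposed to each compound for 48 hours at five concentrations; endpoints were interpolated linearly between bracketing concentrations, or set to the highest concentration if not reached. GI50 = concentration required for 50% inhibition of growth.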 Calls of active or inactive are those of the source. No stated cut-off is given here; in the data, active = GI50 up to about 1.1 µM and inactive = higher.

What was measured:
Experiment in all cases: NCI anticancer screen, dose series, 48 h
HT-29 = tested on: HT-29
NCI/ADR-RES = tested on: NCI/ADR-RES
OVCAR-4 = tested on: OVCAR-4
MDA-MB-231 = tested on: MDA-MB-231
786-0 = tested on: 786-0
SN12C = tested on: SN12C
SK-MEL-5 = tested on: SK-MEL-5
SK-OV-3 = tested on: SK-OV-3
OVCAR-5 = tested on: OVCAR-5
UO-31 = tested on: UO-31
PC-3 = tested on: PC-3
CAKI-1 = tested on: CAKI-1
SF-539 = tested on: SF-539
Malme-3M = tested on: Malme-3M
MDA-N = tested on: MDA-N
MDA-MB-435 = tested on: MDA-MB-435
UACC-257 = tested on: UACC-257
SR = tested on: SR
RXF 393 = tested on: RXF 393
NCI-H226 = tested on: NCI-H226

Measured: GI50

CC1(C)C(=O)/C(=C/c2ccccc2)C(C)(C)C1(C)C
inactive: HT-29 40.1 µM | NCI/ADR-RES > 90.6 µM | OVCAR-4 > 75.3 µM | MDA-MB-231 > 93.8 µM | 786-0 > 81.8 µM | SN12C 50.8 µM | SK-MEL-5 55 µM | SK-OV-3 > 55.5 µM | OVCAR-5 > 100 µM | UO-31 52.6 µM | PC-3 53.7 µM | CAKI-1 49.1 µM | SF-539 > 100 µM | Malme-3M > 71.3 µM | MDA-N 39.1 µM | MDA-MB-435 29.4 µM | UACC-257 > 100 µM | SR 37 µM | RXF 393 > 100 µM | NCI-H226 > 100 µM

COc1ccc(C2OC(=O)c3ccc4ccccc4c32)c(C)c1 (stereo not given)
inactive: HT-29 3.78 µM | NCI/ADR-RES 2.37 µM | OVCAR-4 19.6 µM | MDA-MB-231 6.12 µM | 786-0 12.7 µM | SN12C 10.1 µM | SK-MEL-5 3.54 µM | SK-OV-3 7.82 µM | OVCAR-5 19.9 µM | UO-31 8.97 µM | PC-3 9.08 µM | CAKI-1 13.3 µM | SF-539 12.2 µM | Malme-3M 8.18 µM | MDA-N 2 µM | MDA-MB-435 2.36 µM | UACC-257 27.5 µM | SR 3.86 µM | RXF 393 5.33 µM | NCI-H226 13.9 µM

Cn1c2c(c3ccccc31)CC1c3c(c4ccccc4n3C)CC21 (stereo not given)
inactive: HT-29 > 100 µM | NCI/ADR-RES > 100 µM | OVCAR-4 > 100 µM | MDA-MB-231 > 100 µM | 786-0 > 100 µM | SN12C > 100 µM | SK-MEL-5 > 100 µM | SK-OV-3 > 100 µM | OVCAR-5 > 100 µM | UO-31 > 100 µM | PC-3 > 100 µM | CAKI-1 > 100 µM | SF-539 > 100 µM | Malme-3M > 100 µM | MDA-N > 100 µM | MDA-MB-435 > 100 µM | UACC-257 > 100 µM | SR > 100 µM | RXF 393 > 100 µM | NCI-H226 > 100 µM

CN1CCN(C)C12C=c1ccccc1=CC21CC1
inactive: HT-29 17.2 µM | NCI/ADR-RES > 68.2 µM | OVCAR-4 71.3 µM | MDA-MB-231 38.4 µM | 786-0 54 µM | SN12C 81.1 µM | SK-MEL-5 23.2 µM | SK-OV-3 > 92.9 µM | OVCAR-5 > 100 µM | UO-31 40.9 µM | PC-3 32.3 µM | CAKI-1 74.1 µM | SF-539 37.9 µM | Malme-3M 28.5 µM | MDA-N 27.4 µM | MDA-MB-435 22.1 µM | UACC-257 23.7 µM | SR 25.3 µM | RXF 393 55.5 µM | NCI-H226 > 100 µM

Cc1cc[n+]2c(c1)-c1cc(C)cc[n+]1CC2
inactive: HT-29 34.7 µM | NCI/ADR-RES > 100 µM | OVCAR-4 > 100 µM | MDA-MB-231 > 71.1 µM | 786-0 > 100 µM | SN12C 89.9 µM | SK-MEL-5 > 100 µM | SK-OV-3 > 100 µM | OVCAR-5 > 100 µM | UO-31 > 100 µM | PC-3 > 76.7 µM | CAKI-1 > 100 µM | SF-539 > 100 µM | Malme-3M 99.5 µM | MDA-N > 100 µM | MDA-MB-435 > 100 µM | UACC-257 > 100 µM | SR > 100 µM | RXF 393 > 100 µM | NCI-H226 > 100 µM
